“And” between values parts separate entries of the source, which are not always exact repeats. Identical values can stand only once. Like-named read-outs stand apart in the source and are kept apart here.
Assays:
[1] = system: HCT-15 cells; test: MTT cytotoxicity assay, HCT-15; format: cell-based, human
How it was run: (§1)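 MTT viability read-out in HCT-15 and A375 human cancer cells after 72 h compound exposure; triplicate cultures per treatment.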

[2] = system: PC3 cells; test: MTT cytotoxicity assay, PC3; format: cell-based, human; details: PC3, 72 h exposure, read-out: IC50 (median growth inhibitory concentration)
Protocol: Cisplatin (CDDP) and oxaliplatin (OXP) were dissolved just before the experiment in a 0.9% NaCl solution.
Human prostate adenocarcinoma (PC3) cells were obtained from European Collection of Cell Cultures (ECACC, Salisbury, UK). Human ovarian cancer cell lines A2780 and its cisplatin resistant variant, A2780cisR, were kindly provided by Prof.
Triplicate cultures were established for each treatment.

[3] = system: A375 cells; test: MTT cytotoxicity assay, A375; format: cell-based, human
How it was run: as §1

[4] = system: 2008 cells; test: MTT cytotoxicity assay, 2008; format: cell-based, human; details: for IC50: 2008, 72 h, MTT
Protocol: (§2) MTT assay. […] Triplicate cultures were established for each treatment.
(§3) The two dimers, 3a and 3b, as well as compounds 1a and 2a were screened against six human cancer cell lines representative of lung (H157), colon (HCT-15), cervical (A431), ovarian (2008) and pancreatic (PSN1) cancers, along with melanoma (A375). Cytotoxicity was evaluated by means of the MTT test after 72 h of treatment and the in vitro antitumor potential of newly synthesized derivatives was compared to that of the reference metallo-drugs CDDP and OXP.

[5] = system: A431 cells; test: MTT cytotoxicity assay, A431; format: cell-based, human; details: A431, 72 h
How it was run: (§4)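 MTT viability read after 72 h compound exposure in human cancer cell lines (lung H157, colon HCT-15, cervical A431, ovarian 2008, pancreatic PSN1, melanoma A375). Triplicate cultures per treatment.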

[6] = system: H157 cells; test: MTT cytotoxicity assay, H157; format: cell-based, human; details: H157, 72 h
Protocol: as §2, §3

[7] = system: PSN1 cells; test: MTT cytotoxicity assay, PSN1; format: cell-based, human; details: for IC50: PSN1, 72 h, MTT
How it was run: as §4

[8] = system: HCT-15 spheroids; test: 3D spheroid APH assay, HCT-15; format: cell-based, human; details: for IC50: HCT-15 spheroids, 72 h, APH test
Description: (§5) Acid phosphatase (APH) assay. A modified APH assay, which is based on quantification of cytosolic acid phosphatase activity, was used for determining cell viability in spheroids. […] Triplicate cultures were established for each treatment. […] Evaluation was based on means from at least four independent experiments.
(§6) In order to improve the predictive capacity of the in vitro assays, we tested the activity in three three-dimensional (3D) cell cultures; human colon cancer cells, HCT-15, and human pancreatic cancer cells, KRAS wild type BxPC3 cells KRAS mutated PSN-1 cells. The cancer spheroids were treated with 3a and 3b for 72 h and the cell viability was assessed by means of the APH assay (Table 6). For comparison purposes, the cytotoxicities of CDDP and OXP were evaluated under the same experimental conditions.

[9] = system: BxPC3 spheroids; test: 3D spheroid APH assay, BxPC3; format: cell-based, human; details: 72 h, APH test
Description: as §5, §6

[10] = system: PSN-1 spheroids; test: 3D spheroid APH assay, PSN-1; format: cell-based, human; details: for IC50: PSN-1 spheroids, 72 h, APH test
Description: as §5, §6

[11] = system: human embryonic kidney HEK293 cells; test: MTT cytotoxicity against non-tumor cells; format: cell-based; details: for IC50: HEK293 non-tumor cells, 72 h, MTT; for SI (selectivity index): ratio between average IC50 of non-tumor cells and IC50 of malignant cells
Protocol: as §2
The cytotoxic activity of derivatives 3a and 3b was also evaluated against non-tumor cells, namely human embryonic kidney HEK293 cells (Table 7). Both compounds 3a and 3b were more cytotoxic than CDDP.

[12] = system: Histone deacetylase (HDAC); test: Histone deacetylase assay in 2008 cells; format: cell-based, human; details: 24 h, IC50 concentrations
Protocol: (§7) Histone deacetylase assay. Histone deacetylase activity was determined using Fluor-de-Lys® HDAC fluorometric activity assay kit (Enzo Life Sciences International, Inc., Plymount Meeting, Pa., U.S.A.). 2008 and PSN1 cells (5.10^4 seeded in 96-well microplates) were treated for 24 h with tested complexes, and then processed as reported by the manufacturer's instructions. Fluorescence was measured using a Fluoroskan Ascent FL (Labsystem, Finland) plate reader, with excitation at 360 nm and emission at 460 nm.
(§8) Thus, we measured both the levels of DNA platination and the ability of these pro-drugs to inhibit HDAC activity in cancer cells.

[13] = system: Histone deacetylase (HDAC); test: Histone deacetylase assay in PSN-1 cells; format: cell-based, human; details: 24 h, IC50 concentrations
Protocol: as §7, §8

[14] = system: nine cancer cell lines; test: MTT cytotoxicity, over the nine cancer cell lines; details: read-out: average IC50 values for the nine cancer cell lines; mean over nine cell lines, 72 h MTT
[15] = system: PSN-1 cells; test: Mitochondrial membrane potential (Mito-ID), PSN-1; format: cell-based, human; details: 12 h of incubation
Protocol: Mitochondrial membrane potential (ΔΨ). ΔΨ was assayed using the Mito-ID Membrane Potential Kit according to the manufacturer's instructions (Enzo Life Sciences, Farmingdale, N.Y.). Briefly, 2008 and PSN1 cells were seeded onto 96-well microplates at 5.10^4 cells/well. After 24 h, cells were treated with tested compounds for 6, 12 and 24 h. The mitochondrial depolarizing agent, carbonyl cyanide 3-chlorophenylhydrazone (CCCP) was employed as positive control. An equal volume of cationic dye loading solution was added to each well and cell plates were incubated for additional 30 min at 37° C. Plates were read at excitation/emission wavelengths 490 and 590 nm using a fluorescence microplate reader (Fluoroskan Ascent FL, Labsystem, Finland).
In addition, it is interesting to note that treatment of 2008 and PSN-1 cells with 3a and 3b determined a significant time-dependent increase in the number of cells with depolarized mitochondria (data not shown). In particular, after 12 h of incubation, 3a elicited an increase of about 39% of PSN-1 cells with depolarized mitochondrial potential FIG. 12B). Again, the reference compound [Pt(DACH)(56Phen)] was effective in hampering cellular mitochondrial membrane potential in both tested cancer cell lines.

[16] = HCT-15, 72 h, MTT (Table 5), read-out: IC50 (μM) ± S.D.
[17] = A375, 72 h, MTT (Table 5), read-out: IC50 (μM) ± S.D.

Compound	IC50 [1, 16] [µM]	IC50 [3, 17] [µM]	IC50 [4] [µM]	IC50 [5] [µM]	IC50 [6] [µM]	IC50 [7] [µM]	IC50 [8] [µM]	IC50 [9] [µM]	IC50 [10] [µM]	IC50 [11] [µM]	SI (selectivity index) [11]	HDAC activity hampered [12]	HDAC activity hampered [13]	further results
[NH2][Pt]([NH2])([Cl])[Cl] [CDDP, Cisplatin, reference compound]	15.3 ± 2.63	3.11 ± 0.98	2.22	1.65 ± 0.51	3.28 ± 2.38	18.2	89.2 ± 3.44	69.6 ± 8.21	59.9 ± 12.9	19.6 ± 2.95	2.7	not effective in modifying HDAC activity	not effective in modifying HDAC activity	IC50 ([1]; HCT-15, 72 h exposure, MTT (Table 1), read-out: IC50 (median growth inhibitory concentration)): 11.3 ± 1.06 µM; IC50 [2]: 2.25 ± 0.82 µM; IC50 ([3]; A375, 72 h exposure, MTT (Table 1), read-out: IC50 (median growth inhibitory concentration)): 4.03 ± 0.95 µM; fold more potent than 3b ([4]; 2008 cells): ~3 fold; IC50 [14]: 9.18 µM and 9.9 µM
c,c,t,t,c,c-[(DACH)(56Phen)(PhBu)Pt(μ-OOC—(CH2)2—CONH(CH2)3COO)—Pt(DCA)(NH3)2 (Cl2)](TFA)2 [Compound 3a]	0.36 ± 0.08	0.08 ± 0.01	0.79	0.2 ± 0.09	0.95 ± 0.08	0.09	40 ± 4.58	59.1 ± 3.84	10.3 ± 4.85	2.25 ± 0.29	5.5	about 8%	~10%	times more effective than CDDP ([7]; PSN1 cells): up to 200 fold; times more effective than OXP ([7]; PSN1 cells): ≤ 92 fold; times more effective than CDDP ([8]; HCT-15 3D model): about 2 fold; factor by which activity exceeded that of the reference drugs ([10]; PSN-1 3D model): about 6 fold; times SI better than that of cisplatin [11]: about 2 fold; increase of cells with depolarized mitochondrial potential [15]: about 39%
